Measurements taken from PubChem BioAssay (NCI).
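Dose response: 5 concentrations. Exposure: 48 h. Format: 96-well plates. Endpoint: linear interpolation; highest concentration if not reached. At the GI50, growth is halved. TGI: total growth inhibition.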

How the values were obtained:
Test in all cases: NCI anticancer screen, dose series, 48 h
MCF7 breast = tested on: MCF7 breast
T-47D breast = tested on: T-47D breast
SF-295 CNS = tested on: SF-295 CNS
SK-MEL-2 melanoma = tested on: SK-MEL-2 melanoma
SK-MEL-5 melanoma = tested on: SK-MEL-5 melanoma
IGROV1 ovarian = tested on: IGROV1 ovarian
SK-MEL-28 melanoma = tested on: SK-MEL-28 melanoma
NCI-H23 lung = tested on: NCI-H23 lung
NCI-H522 lung = tested on: NCI-H522 lung
MOLT-4 leukemia = tested on: MOLT-4 leukemia
CCRF-CEM leukemia = tested on: CCRF-CEM leukemia
A549 NSCLC = tested on: A549 NSCLC
MALME-3M melanoma = tested on: MALME-3M melanoma
DU-145 prostate = tested on: DU-145 prostate
A498 renal = tested on: A498 renal
RPMI-8226 leukemia = tested on: RPMI-8226 leukemia
SF-268 CNS = tested on: SF-268 CNS
M14 melanoma = tested on: M14 melanoma
OVCAR-5 ovarian = tested on: OVCAR-5 ovarian
NCI-H460 lung = tested on: NCI-H460 lung
CAKI-1 renal = tested on: CAKI-1 renal
SN12C renal = tested on: SN12C renal
HS 578T breast = tested on: HS 578T breast
RXF 393 renal = tested on: RXF 393 renal
OVCAR-3 ovarian = tested on: OVCAR-3 ovarian
UO-31 renal = tested on: UO-31 renal
OVCAR-8 ovarian = tested on: OVCAR-8 ovarian
COLO 205 colon = tested on: COLO 205 colon
K-562 leukemia = tested on: K-562 leukemia
HL-60(TB) leukemia = tested on: HL-60(TB) leukemia
SNB-19 CNS = tested on: SNB-19 CNS
UACC-62 melanoma = tested on: UACC-62 melanoma
LOX IMVI melanoma = tested on: LOX IMVI melanoma
U251 CNS = tested on: U251 CNS
KM12 colon = tested on: KM12 colon
HCC-2998 colon = tested on: HCC-2998 colon
786-0 renal = tested on: 786-0 renal
PC-3 prostate = tested on: PC-3 prostate
BT-549 breast = tested on: BT-549 breast
TK-10 renal = tested on: TK-10 renal
UACC-257 melanoma = tested on: UACC-257 melanoma
HOP-62 NSCLC = tested on: HOP-62 NSCLC
SK-OV-3 ovarian = tested on: SK-OV-3 ovarian
HT29 colon = tested on: HT29 colon
SNB-75 CNS = tested on: SNB-75 CNS
SW-620 colon = tested on: SW-620 colon
SR leukemia = tested on: SR leukemia
MDA-MB-231 breast = tested on: MDA-MB-231 breast
SF-539 CNS = tested on: SF-539 CNS
OVCAR-4 ovarian = tested on: OVCAR-4 ovarian
NCI-H226 lung = tested on: NCI-H226 lung
NCI/ADR-RES ovarian = tested on: NCI/ADR-RES ovarian
MDA-MB-435 = tested on: MDA-MB-435
HCT-116 colon = tested on: HCT-116 colon
ACHN renal = tested on: ACHN renal
HCT-15 colon = tested on: HCT-15 colon

## N/C(=N\O)c1cn(C2OC(CO)C(O)C2O)c2ncnc(N)c12 (configuration not stated)
MCF7 breast
  GI50: 56 nM
  TGI: 1070 nM
T-47D breast
  GI50: 108 nM
SF-295 CNS
  GI50: 275 nM
  TGI: 7300 nM
SK-MEL-2 melanoma
  GI50: 128 nM
  TGI: 400 nM
SK-MEL-5 melanoma
  GI50: 183 nM
  TGI: 356 nM
IGROV1 ovarian
  GI50: 263 nM
  TGI: 20700 nM
SK-MEL-28 melanoma
  GI50: 127 nM
  TGI: 382 nM
NCI-H23 lung
  GI50: 229 nM
  TGI: 5180 nM
NCI-H522 lung
  GI50: 157 nM
  TGI: 401 nM
MOLT-4 leukemia
  GI50: 277 nM
  TGI: 1640 nM
CCRF-CEM leukemia
  GI50: 303 nM
  TGI: > 38600 nM
A549 NSCLC
  GI50: 126 nM
  TGI: 20100 nM
MALME-3M melanoma
  GI50: 57.8 nM
  TGI: 243 nM
DU-145 prostate
  GI50: 190 nM
A498 renal
  GI50: 140 nM
  TGI: 555 nM
RPMI-8226 leukemia
  GI50: 162 nM
  TGI: 625 nM
SF-268 CNS
  GI50: 105 nM
  TGI: > 21500 nM
M14 melanoma
  GI50: 108 nM
  TGI: 776 nM
OVCAR-5 ovarian
  GI50: 507 nM
  TGI: > 40500 nM
NCI-H460 lung
  GI50: 138 nM
  TGI: 987 nM
CAKI-1 renal
  GI50: 132 nM
  TGI: 13100 nM
SN12C renal
  GI50: 152 nM
  TGI: > 36100 nM
HS 578T breast
  GI50: 263 nM
  TGI: 3620 nM
RXF 393 renal
  GI50: 169 nM
  TGI: 722 nM
OVCAR-3 ovarian
  GI50: 408 nM
  TGI: 9760 nM
UO-31 renal
  GI50: 229 nM
  TGI: 13400 nM
OVCAR-8 ovarian
  GI50: 186 nM
  TGI: 2590 nM
COLO 205 colon
  GI50: 131 nM
  TGI: 601 nM
K-562 leukemia
  GI50: 281 nM
  TGI: > 100000 nM
HL-60(TB) leukemia
  GI50: 117 nM
  TGI: 858 nM
SNB-19 CNS
  GI50: 301 nM
  TGI: > 100000 nM
UACC-62 melanoma
  GI50: 141 nM
  TGI: 366 nM
LOX IMVI melanoma
  GI50: 153 nM
  TGI: 501 nM
U251 CNS
  GI50: 185 nM
  TGI: > 71700 nM
KM12 colon
  GI50: 188 nM
HCC-2998 colon
  GI50: 212 nM
  TGI: 1430 nM
786-0 renal
  GI50: 374 nM
  TGI: > 100000 nM
PC-3 prostate
  GI50: 343 nM
  TGI: 5790 nM
BT-549 breast
  GI50: 311 nM
  TGI: 17700 nM
TK-10 renal
  GI50: 204 nM
  TGI: 7490 nM
UACC-257 melanoma
  GI50: 177 nM
  TGI: 705 nM
HOP-62 NSCLC
  GI50: 468 nM
  TGI: > 68700 nM
SK-OV-3 ovarian
  GI50: 88.4 nM
  TGI: 1760 nM
HT29 colon
  GI50: 226 nM
  TGI: 18600 nM
SNB-75 CNS
  GI50: 180 nM
  TGI: 6170 nM
SW-620 colon
  GI50: 88.3 nM
SR leukemia
  GI50: 87.6 nM
  TGI: 14800 nM
MDA-MB-231 breast
  GI50: 197 nM
  TGI: 18900 nM
SF-539 CNS
  GI50: 255 nM
  TGI: 3510 nM
OVCAR-4 ovarian
  GI50: 177 nM
  TGI: 4050 nM
NCI-H226 lung
  GI50: 446 nM
  TGI: 49600 nM
NCI/ADR-RES ovarian
  GI50: 262 nM
MDA-MB-435
  GI50: 75.8 nM
  TGI: 263 nM
HCT-116 colon
  GI50: 63.3 nM
  TGI: > 100000 nM
ACHN renal
  GI50: 76.4 nM
  TGI: > 35900 nM
HCT-15 colon
  GI50: 133 nM
  TGI: > 47800 nM
